Reference: patent US8410085B2, “Phospholipid compositions and uses thereof” (Baylor College of Medicine, priority 2007, dated 2013)
Several values for one entry are separate records, joined by “and”; a condition that tells them apart may be missing. Identical values can stand only once. Entries after “also recorded” stand apart in the source; their conditions may differ.

Key:
[1] = target: RXRα (Homo sapiens, UniProt P19793); test: nuclear receptor cotransfection (RE-tk-luc), HeLa cells; conditions: 100 μM
[2] = target: mouse LRH-1 (Mus musculus, UniProt P45448); test: mouse LRH-1 transactivation, reporter cotransfection
[3] = target: PPARα (Homo sapiens, UniProt Q07869); test: nuclear receptor cotransfection (RE-tk-luc), HeLa cells; conditions: 100 μM
[4] = target: LXRα (Homo sapiens, UniProt Q13133); test: as above; conditions: 100 μM
[5] = target: PPARδ (Homo sapiens, UniProt Q03181); test: as above; conditions: 100 μM
[6] = target: SF-1 (Homo sapiens, UniProt Q13285); test: SF-1 transactivation, reporter cotransfection in HeLa cells; conditions: 100 μM
[7] = tested on: LRH-1 target Cyp8B1; test: hCYP8B1 expression by Q-PCR in C3A HepG2 cells
[8] = target: T1, LRH-1 (Homo sapiens, UniProt O00482); test: human LRH-1 transactivation, HeLa cotransfection with LRH-1/SF-1 response element luciferase reporter; assay type: cell-based; parameters: expressed in transfected cells; host or cells: HeLa (A1, A3); conditions: HeLa cells
Procedure: Controls (vector only and no lipid) are as indicated. […] Cells were treated with 100 μM of the indicated PCs and luciferase expression (RLU, relative light units) was normalized using an internal β-galactosidase control. vec, empty vector; −, ethanol solvent control.
HeLa cells were transfected with an hLRH-1 expression vector along with mSHP1080-Luc reporter. […] Oct4-PPmut Luc is identical to Oct4-PP Luc except for the insertion of point mutations in the DR0 element. […] HeLa cells were cotransfected with various nuclear receptors and the reporter plasmid (RE-tk-luc). […] Data are expressed for each reporter as fold activation of normalized luciferase activity relative to veh-treated cells.
A number of different phosphatidylcholine (PC) species were screened for effects on human LRH-1 transactivation in HeLa cell cotransfections with a synthetic luciferase reporter containing multiple copies of an LRH-1/SF-1 response element.

[9] = target: GST-hLRH-1 LBD / SRC-3 (Homo sapiens, UniProt O00482); test: GST pulldown, GST-hLRH-1 LBD with in vitro translated 35S-labeled SRC-3
[10] = target: TRβ (Homo sapiens, UniProt P10828); test: nuclear receptor cotransfection (RE-tk-luc), HeLa cells; conditions: 100 μM
[11] = target: T1, LRH-1; test: mouse SHP promoter (mSHP1080-Luc) activation by hLRH-1 in HeLa cells; conditions: 100 μM
[12] = target: T1, LRH-1; conditions: CV-1 and HEK293T cells, compared with HeLa
[13] = target: RARβ (Homo sapiens, UniProt P10826); test: nuclear receptor cotransfection (RE-tk-luc), HeLa cells; conditions: 100 μM
[14] = target: mouse CAR (Mus musculus, UniProt O35627); test: as above; conditions: 100 μM
[15] = target: human PXR (Homo sapiens, UniProt O75469); test: as above; conditions: 100 μM
[16] = target: PPARγ (Homo sapiens, UniProt P37231); test: as above; conditions: 100 μM
[17] = target: T1, LRH-1; test: Oct4 proximal promoter (Oct4-PP Luc) activation by hLRH-1 in COS-1 cells
[18] = tested on: LRH-1; test: hepatic gene expression in LRH-1 f/f mice infected with Ad-Cre; assay type: in vivo, mouse; conditions: 100 mg/kg oral, 100 mg/kg
From the text: (§1) Total liver RNA was isolated and prepared for the cDNA. […] Total liver RNA was isolated and prepared for cDNA.

[19] = tested on: hepatic expression of Cyp7A1, Cyp8B1, mSR-BI, SHP; test: hepatic gene expression (Q-PCR) in wild type mice after oral gavage; assay type: in vivo, mouse; conditions: 100 mg/kg oral, five times over three days
From the text: as §1

[20] = target: FXR (Homo sapiens, UniProt Q96RI1); test: nuclear receptor cotransfection (RE-tk-luc), HeLa cells; conditions: 100 μM
[21] = target: hLRH-1 LBD / SRC-3 receptor interaction domain (Homo sapiens, UniProt O00482); test: mammalian two-hybrid assay, VP16-hLRH1 LBD with Gal4-SRC3 RID in HeLa cells
[22] = tested on: wild type male mice; test: bile acids, serum glucose and NEFA in wild type mice after oral gavage; assay type: in vivo, mouse; conditions: 100 mg/kg oral
[23] = target: T1, LRH-1; test: LRH-1 Luc reporter in C3A HepG2 cells (endogenous hLRH-1); conditions: C3A/HepG2 cells or cells with non-target control siRNAs
[24] = target: ERα (Homo sapiens, UniProt P03372); test: nuclear receptor cotransfection (RE-tk-luc), HeLa cells; conditions: 100 μM
[25] = target: human CAR (Homo sapiens, UniProt Q14994); test: as above; conditions: 100 μM

T1 sequence (O00482 whole entry): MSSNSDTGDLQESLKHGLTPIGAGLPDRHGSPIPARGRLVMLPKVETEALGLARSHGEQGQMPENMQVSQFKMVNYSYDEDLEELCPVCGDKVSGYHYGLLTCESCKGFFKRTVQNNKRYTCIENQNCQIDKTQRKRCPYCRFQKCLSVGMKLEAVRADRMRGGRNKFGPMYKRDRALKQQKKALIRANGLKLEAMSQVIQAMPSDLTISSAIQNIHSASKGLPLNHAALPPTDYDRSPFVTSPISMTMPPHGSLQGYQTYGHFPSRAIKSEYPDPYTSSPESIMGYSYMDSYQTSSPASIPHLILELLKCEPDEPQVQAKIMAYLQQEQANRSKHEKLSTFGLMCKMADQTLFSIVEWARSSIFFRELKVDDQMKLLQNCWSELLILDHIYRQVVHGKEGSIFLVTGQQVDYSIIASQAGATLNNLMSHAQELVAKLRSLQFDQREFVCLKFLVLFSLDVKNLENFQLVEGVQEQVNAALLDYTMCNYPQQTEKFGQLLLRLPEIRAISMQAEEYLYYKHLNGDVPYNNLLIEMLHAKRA
Sequence of GST-hLRH-1 LBD / SRC-3 (O00482 300-539 limits assumed): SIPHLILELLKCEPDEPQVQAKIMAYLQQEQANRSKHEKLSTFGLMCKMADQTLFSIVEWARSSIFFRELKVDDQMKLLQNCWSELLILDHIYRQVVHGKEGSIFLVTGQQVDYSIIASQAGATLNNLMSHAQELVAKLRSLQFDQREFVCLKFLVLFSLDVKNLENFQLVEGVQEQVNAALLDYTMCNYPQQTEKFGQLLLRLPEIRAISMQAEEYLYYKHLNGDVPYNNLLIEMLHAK
Sequence of GST-hLRH-1 LBD / SRC-3 (Q9Y6Q9 whole entry partner, the tested form may be a part): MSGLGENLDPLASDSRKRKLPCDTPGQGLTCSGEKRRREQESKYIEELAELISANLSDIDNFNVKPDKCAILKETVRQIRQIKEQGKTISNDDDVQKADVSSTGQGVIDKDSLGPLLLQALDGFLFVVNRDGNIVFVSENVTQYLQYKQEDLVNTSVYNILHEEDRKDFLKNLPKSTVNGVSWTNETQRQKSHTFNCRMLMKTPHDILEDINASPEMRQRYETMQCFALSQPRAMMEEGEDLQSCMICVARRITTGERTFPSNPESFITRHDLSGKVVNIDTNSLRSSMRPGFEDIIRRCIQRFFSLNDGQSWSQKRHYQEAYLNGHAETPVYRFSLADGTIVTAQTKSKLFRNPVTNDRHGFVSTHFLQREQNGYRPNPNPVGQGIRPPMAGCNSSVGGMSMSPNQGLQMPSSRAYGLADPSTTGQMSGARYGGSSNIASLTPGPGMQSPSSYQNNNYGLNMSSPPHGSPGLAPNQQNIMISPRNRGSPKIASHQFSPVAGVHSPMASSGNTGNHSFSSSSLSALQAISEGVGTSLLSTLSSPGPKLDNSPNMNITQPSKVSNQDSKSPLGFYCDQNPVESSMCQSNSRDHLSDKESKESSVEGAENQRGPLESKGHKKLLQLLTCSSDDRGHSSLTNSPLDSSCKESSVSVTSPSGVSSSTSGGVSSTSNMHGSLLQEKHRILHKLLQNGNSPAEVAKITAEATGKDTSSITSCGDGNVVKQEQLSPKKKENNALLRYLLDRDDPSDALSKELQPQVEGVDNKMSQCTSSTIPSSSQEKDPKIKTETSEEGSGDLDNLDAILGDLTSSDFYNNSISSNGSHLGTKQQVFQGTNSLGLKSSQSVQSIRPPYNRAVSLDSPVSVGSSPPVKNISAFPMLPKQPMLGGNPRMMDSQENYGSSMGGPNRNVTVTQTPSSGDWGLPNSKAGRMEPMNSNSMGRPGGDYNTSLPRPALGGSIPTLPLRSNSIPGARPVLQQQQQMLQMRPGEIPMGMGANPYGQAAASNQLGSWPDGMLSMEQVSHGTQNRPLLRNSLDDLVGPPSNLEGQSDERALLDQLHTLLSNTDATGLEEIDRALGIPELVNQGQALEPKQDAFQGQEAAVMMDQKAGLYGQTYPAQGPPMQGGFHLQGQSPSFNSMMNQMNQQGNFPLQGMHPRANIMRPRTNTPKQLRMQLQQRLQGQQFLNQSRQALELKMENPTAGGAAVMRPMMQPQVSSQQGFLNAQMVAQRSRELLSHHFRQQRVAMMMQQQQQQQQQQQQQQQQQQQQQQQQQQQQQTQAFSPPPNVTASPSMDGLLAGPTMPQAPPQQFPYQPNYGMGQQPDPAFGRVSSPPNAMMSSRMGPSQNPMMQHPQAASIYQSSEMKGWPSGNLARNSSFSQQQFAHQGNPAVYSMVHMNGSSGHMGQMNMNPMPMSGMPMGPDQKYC
Sequence of PPARγ (P37231 whole entry, species assumed): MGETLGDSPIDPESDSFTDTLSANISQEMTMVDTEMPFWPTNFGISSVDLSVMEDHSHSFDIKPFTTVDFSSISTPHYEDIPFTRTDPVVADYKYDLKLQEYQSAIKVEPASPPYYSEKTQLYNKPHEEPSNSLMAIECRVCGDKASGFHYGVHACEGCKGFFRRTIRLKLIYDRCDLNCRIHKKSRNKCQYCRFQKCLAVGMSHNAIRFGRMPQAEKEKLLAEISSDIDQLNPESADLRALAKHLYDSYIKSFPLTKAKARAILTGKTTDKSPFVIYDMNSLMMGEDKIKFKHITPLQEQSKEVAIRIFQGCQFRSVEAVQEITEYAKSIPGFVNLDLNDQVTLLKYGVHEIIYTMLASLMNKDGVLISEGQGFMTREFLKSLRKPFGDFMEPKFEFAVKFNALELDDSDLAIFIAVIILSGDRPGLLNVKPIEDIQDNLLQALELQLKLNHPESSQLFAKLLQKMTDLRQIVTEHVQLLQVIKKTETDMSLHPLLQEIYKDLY
Sequence of FXR (Q96RI1 whole entry, species assumed, the tested form may be a part): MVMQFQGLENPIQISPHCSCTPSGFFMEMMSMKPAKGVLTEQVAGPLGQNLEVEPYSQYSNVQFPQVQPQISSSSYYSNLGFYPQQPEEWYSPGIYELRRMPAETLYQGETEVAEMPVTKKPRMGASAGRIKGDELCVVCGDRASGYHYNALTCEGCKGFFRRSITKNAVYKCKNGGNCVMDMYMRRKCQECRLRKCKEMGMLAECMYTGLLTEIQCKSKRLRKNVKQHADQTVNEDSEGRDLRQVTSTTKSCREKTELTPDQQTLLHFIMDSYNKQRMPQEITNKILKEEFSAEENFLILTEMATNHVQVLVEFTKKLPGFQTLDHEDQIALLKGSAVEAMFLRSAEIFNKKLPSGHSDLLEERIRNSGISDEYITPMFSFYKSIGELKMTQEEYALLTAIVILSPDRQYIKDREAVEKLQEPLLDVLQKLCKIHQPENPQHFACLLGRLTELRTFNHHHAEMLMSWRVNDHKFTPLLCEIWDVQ
Sequence of mouse LRH-1 (P45448 whole entry): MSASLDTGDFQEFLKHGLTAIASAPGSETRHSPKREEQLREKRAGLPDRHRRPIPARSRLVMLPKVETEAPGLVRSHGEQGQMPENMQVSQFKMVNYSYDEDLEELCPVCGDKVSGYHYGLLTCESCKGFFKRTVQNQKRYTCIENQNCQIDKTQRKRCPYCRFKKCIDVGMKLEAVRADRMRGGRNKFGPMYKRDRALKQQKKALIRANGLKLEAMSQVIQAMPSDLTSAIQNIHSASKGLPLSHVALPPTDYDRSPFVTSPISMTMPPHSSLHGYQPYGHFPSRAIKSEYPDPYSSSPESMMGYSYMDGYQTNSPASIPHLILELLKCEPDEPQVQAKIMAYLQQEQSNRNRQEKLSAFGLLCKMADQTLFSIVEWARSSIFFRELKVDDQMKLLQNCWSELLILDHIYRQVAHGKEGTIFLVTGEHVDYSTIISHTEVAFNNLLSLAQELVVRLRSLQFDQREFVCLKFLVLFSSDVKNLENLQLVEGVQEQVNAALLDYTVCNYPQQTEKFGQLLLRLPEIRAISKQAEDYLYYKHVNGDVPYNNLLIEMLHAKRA
Sequence of RXRα (P19793 whole entry): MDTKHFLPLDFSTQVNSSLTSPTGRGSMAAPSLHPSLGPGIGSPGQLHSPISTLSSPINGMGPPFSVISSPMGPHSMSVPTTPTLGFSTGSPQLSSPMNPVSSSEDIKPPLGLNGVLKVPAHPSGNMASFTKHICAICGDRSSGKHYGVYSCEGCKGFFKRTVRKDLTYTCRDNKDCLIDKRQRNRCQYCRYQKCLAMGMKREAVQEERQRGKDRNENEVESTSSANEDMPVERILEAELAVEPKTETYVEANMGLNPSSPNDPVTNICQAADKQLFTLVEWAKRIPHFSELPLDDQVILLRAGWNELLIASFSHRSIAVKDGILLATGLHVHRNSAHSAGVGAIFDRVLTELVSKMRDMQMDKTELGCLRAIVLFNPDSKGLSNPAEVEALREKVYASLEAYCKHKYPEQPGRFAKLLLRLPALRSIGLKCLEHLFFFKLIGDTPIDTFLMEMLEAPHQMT
Sequence of mouse CAR (O35627 whole entry): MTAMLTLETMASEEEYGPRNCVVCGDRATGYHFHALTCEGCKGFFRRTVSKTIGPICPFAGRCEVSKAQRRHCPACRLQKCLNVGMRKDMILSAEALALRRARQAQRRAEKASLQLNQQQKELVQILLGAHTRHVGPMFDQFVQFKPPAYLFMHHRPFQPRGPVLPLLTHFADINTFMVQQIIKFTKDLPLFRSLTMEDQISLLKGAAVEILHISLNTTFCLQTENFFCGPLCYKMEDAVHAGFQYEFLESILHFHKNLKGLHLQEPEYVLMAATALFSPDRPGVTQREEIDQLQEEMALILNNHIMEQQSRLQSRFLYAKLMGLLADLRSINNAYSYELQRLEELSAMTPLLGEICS
Sequence of human PXR (O75469 whole entry): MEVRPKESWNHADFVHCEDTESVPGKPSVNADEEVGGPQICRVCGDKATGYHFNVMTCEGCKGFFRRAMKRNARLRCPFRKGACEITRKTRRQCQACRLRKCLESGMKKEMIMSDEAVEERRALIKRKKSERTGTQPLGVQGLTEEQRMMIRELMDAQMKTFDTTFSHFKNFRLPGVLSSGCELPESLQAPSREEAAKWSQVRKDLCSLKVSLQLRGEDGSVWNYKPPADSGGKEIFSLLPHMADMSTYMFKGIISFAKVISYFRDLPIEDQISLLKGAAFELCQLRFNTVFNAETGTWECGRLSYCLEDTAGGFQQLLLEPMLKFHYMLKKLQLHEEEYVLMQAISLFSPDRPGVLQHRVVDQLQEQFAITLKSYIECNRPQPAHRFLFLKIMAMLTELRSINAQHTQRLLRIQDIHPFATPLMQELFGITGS

activation or inhibition of RXRα [1]: did not activate or inhibit
mouse LRH-1 response versus human LRH-1 [2]: essentially equivalent responses
activation or inhibition of PPARα [3]: did not activate or inhibit
activation or inhibition of LXRα [4]: did not activate or inhibit
activation or inhibition of PPARδ [5]: did not activate or inhibit
SF-1 activation [6]: activate SF-1
expression of Cyp8B1 ([7]; C3A/HepG2 cells or cells with non-target control siRNAs): modestly but significantly induced
Cyp8B1 response when LRH-1 expression is knocked down ([7]; siRNA hLRH-1): lost
LRH-1 transactivation (luciferase) ([8]; 100 μM): responses
EC50 ([8]; reporter gene, dose response 1-250 μM, read-out: EC50 for activation of hLRH-1): ~60 µM and 57 µM
interaction of GST-LRH1 with SRC-3 ([9]; GST pulldown, 100 μM): further increased
increase of SRC-3 binding ([9]; PhosphorImager quantitation): approximately 3 fold
activation or inhibition of TRβ [10]: did not activate or inhibit
increase of LRH-1 transactivation of the native mouse SHP promoter [11]: approximately 2 fold
LRH-1 transactivation response [12]: similar, but lesser responses
activation or inhibition of RARβ [13]: did not activate or inhibit
activation or inhibition of mouse CAR [14]: did not activate or inhibit
activation or inhibition of human PXR [15]: did not activate or inhibit
activation or inhibition of PPARγ [16]: did not activate or inhibit
response with the Oct4 promoter ([17]; COS-1 cells, Oct4-PP Luc): induced a similar response
activation of Oct4-PPmut Luc ([17]; point mutations in the DR0 element): eliminates activation
activation or inhibition of FXR [20]: did not activate or inhibit
interaction of hLRH-1 LBD with SRC-3 RID [21]: stimulated
LRH-1 Luc luciferase activity [23]: increased luciferase
activation or inhibition of ERα [24]: did not activate or inhibit
activation or inhibition of human CAR [25]: did not activate or inhibit
SMILES: CCCCCCCCCCC(=O)OCC(COP(=O)([O-])OCC[N+](C)(C)C)OC(=O)CCCCCCCCCC (stereo not drawn) [DUPC, diundecanoylphosphatidylcholine]
hepatic gene expression response when LRH-1 gene removed by Cre [18]: not observed; also recorded: completely absent
hepatic expression of Cyp7A1 [19]: significantly induced
hepatic expression of Cyp8B1 [19]: significantly induced
hepatic expression of SHP [19]: repressed
hepatic expression of mSR-BI [19]: significantly induced
liver bile acids [22]: somewhat lower
serum bile acid levels [22]: substantially elevated
serum free fatty acids [22]: decreased levels
serum glucose levels [22]: decreased serum glucose levels
total bile acid pool [22]: significant increase
